# Entries after “also recorded” stand apart in the source; their conditions may differ.
# How the values were obtained:
# [1] = system: breast cancer cells with knocked down LHRH receptors (MDA-MB-231); assay: alamar blue reduction after siRNA knock down of LHRH receptors; type: cell-based, human; settings: 5 μM; 24, 48 and 72 hours; LHRH receptor knock down
# MDA-MB-231 cells = assay: confocal fluorescence imaging of cellular uptake and cytotoxicity; type: cell-based, human; settings: 30 μM; 6 hours
# [2] = system: MDA-MB-231 human triple negative breast cancer subcutaneous tumor xenografts; assay: subcutaneous xenograft tumor shrinkage study; type: in vivo, Athymic Nude-Foxn1nu strain mice; settings: for anti-tumor effect over early, mid and late stages: 14-day, 21-day and 28-day groups, 10 mg/kg IV
# Protocol: In this section, cell culture, tumor induction and drug injection studies were carried out. First, 20 μl of 1×10^6 MDA-MB-231 human triple negative cancer cells were cultured in T75 tissue culture flasks (CELLTREAT, Pepperell, Mass., USA). This was carried out at 37° C. until 70% confluence was reached. The cells were grown under normal atmospheric pressure levels in a “L15^+ medium” that is typically made up of: L-15 medium (ATCC, Manassas, Va., USA), supplemented with 100 I.U./ml penicillin/100 µg/ml streptomycin and 10% FBS (ATCC, Manassas, Va., USA).
# Forty 4-week old Athymic Nude-Foxn1nu strain mice with individual weights of ˜17 g each was purchase from Envigo (Somerset, N.J., USA). These animals were approved for use in the current work by the University of Massachusetts Medical School Institutional Animal Care and Use Committee (UMMS IACUC) with docket #A2630-17. All of the animals were maintained and used according to the approved UMMS IACUC procedure and guideline.
# Subcutaneous tumor xenografts were induced by the injection of 5.0×10^6 of MDA-MB-231 human triple negative breast cancer cells (suspended in sterile saline) into the interscapular region (for a better angiogenic response). Tumor formation was carefully assessed by palpation. Tumor growth was then monitored daily with the digital calipers. The tumor volume was calculated using the following modified ellipsoidal formula: […]
# where length was the longest axis of the tumor and width is the measurement at a right angle to the length.
# The mice were randomly chosen in groups of three (for each drugs injection) into their respective treatment groups. These include groups of mice with early stage (14 days after tumor induction), mid stage (21 days after tumor induction) and late stage (28 days after tumor induction) tumors. The weights of the mice and their tumor sizes were monitored and measured (using digital calipers) on a daily basis. These precise volumes and measured weights of the mice were used to guide the administration of the drugs. They were also used to monitor toxicity and side effects associated with the drugs. For each of the study groups, 3 mice each were randomly assigned to injection of 10 mg/kg of the specific drug configuration (PGS, [D-Lys6]LHRH-conjugated PGS, and DMSO).
# (§1) Different groups of mice were injected intravenously with each drug through their tail veins. This was done after tumor growth for 14, 21 and 28 days. The mice were injected with 10 mg/kg per week, during the two-week periods in which the effects of drugs were investigated. Following each drug administration, the tumor sizes were monitored with calipers on a daily basis (every 24 hours). In this way, the possible tumor shrinkage, growth or elimination, were monitored on a daily basis. Furthermore, the health status of the mice was monitored on a daily basis. This was done by monitoring the mice for signs of weight loss or altered motor ability in their cages. At the end of study, the mice were euthanized, following the approved IACUC guidelines and procedures. Thereafter, tumor tissues were excised from all of the mice, including tissues from their major organs (kidneys, spleen, liver and lungs).
# [3] = histopathological and toxicity studies (body weight, clinical signs, H&E of organs); type: in vivo, athymic nude mice; settings: 10 mg/kg weekly for two weeks, IV; for toxicity / side effects (clinical signs, mortality, body weight): tumor-bearing mice
# Protocol: as §1
# (§2) Following the in vivo tumor induction and growth experiments, tissues were extracted from the kidneys, spleen, lungs, liver and tumor regions. These were immediately fixed in 4% paraformaldehyde, dehydrated in a graded series of alcohol, and embedded in paraffin. Double doses of 10 mg/kg of PGS and PGS-[D-Lys6]LHRH were then administered (on a weekly basis for two weeks) to female athymic nude mice that were subcutaneously-induced with TNBC. In this way, qualitative toxicity was studied by considering differences in mortality, changes in body weight, clinical signs, gross observations and the histopathology of the lungs, kidneys and the liver at different stages of tumor development. This was done for the different drugs and cancer treatment durations. Daily observations and weight measurements were also used to check for possible animal reactions to the drugs, physiological changes, weight loss/gain, and the general well-being of the mice.
# (§3) Hematoxylin and eosin (H and E) staining was also carried out. This was used for the identification of tumor necrosis and the examination of histologic changes that occurred in vital organs, following the administration of the drugs. Briefly, formalin-fixed, paraffin-embedded tissue/organs (tumor, kidneys, liver and lungs) samples (5 μm) were injected with PGS, [D-Lys6]LHRH-conjugated PGS, and DMSO. These were hydrated by passing them through decreasing concentrations (100, 90 &70%) of alcohol baths and water.
# The hydrated tissue sections were then stained in hematoxylin solution for 5 mins. This was followed by rinsing with tap water for 3 minutes and differentiation in 1% acid alcohol for 5 minutes. Tap water was then used to rinse (three times) before dipping the sections in ammonia water for 2 minutes. This was followed by staining with eosin for 10 mins. The treated sliced samples were dehydrated in solution with increasing concentrations of alcohols followed by xylene. Finally, a few drops of Permount Mounting Medium were used to mount the resulting samples. The stained slides were then imaged with a 20× objective lens using a TS100F Nikon microscope (Nikon Instruments Inc., Melville, N.Y., USA) coupled with a DS-Fi3 C camera.
# [4] = system: breast cancer tumor (LHRH receptors on triple negative breast tumor tissue); assay: drug-tissue adhesion study with drug-coated AFM tips; type: binding, mice
# Protocol: In an effort to understand the specificity in the targeting of triple negative breast cancer via the receptors that are over-expressed on the tumor, adhesion measurements were carried out on the control xenograft tissue samples at different stages of tumor development. Adhesion forces and interactions (between the different drug molecules and receptors on the surfaces of the tumor tissues at different stages of development) were explored in an effort to understand the interactions of the drugs with the tumor and non-tumor tissue.
# Antigen retrieval was carried out on the fixed tissue. This involved exposing target antigens to receptors on a 10 μm thick microtome tissue slice. These sliced tissues were prepared for adhesion measurements in an Asylum MFP3D-Bio Atomic Force Microscope (AFM) (Asylum Research, Oxford Instrument, CA, USA). The AFM tips RESP-20 AFM tip (Bruker Santa Barbara, Calif., USA) were dip-coated with prodigiosin, or [D-Lys6]LHRH-conjugated prodigiosin using the techniques described in Obayemi et al. (J. Mech. Behav. Biomed. Mater., 68 (2017), pp. 276-286).
# A simple AFM tip dip-coating technique (J. D. Obayemi et al. Materials Science and Engineering C. 66, (2016), 51-65, Hampp, E. et al. Res. 27 (22), 2891, Hutter, J. L. et al. Instrum. 64, 1868) (of the drugs) was used to coat the AFM tips at room-temperature (˜23° C.). In addition, a positive control of LHRH peptides was coated onto the AFM tips and used to determine the adhesion forces between the receptors on breast cancer tissue. All of the coated AFM tips were air-dried for about 6 h and kept in a desiccator overnight before the adhesion measurements.
# The spring constants of the coated and uncoated AFM tips were measured experimentally using the thermal tune method (J. D. Obayemi, et al. Mater., 68 (2017), 276-286). This was done to obtain the actual spring constants that were used to calculate the pull-off forces from Hooke's law. The adhesion interactions were measured for the following configurations of coatings on the AFM tips and breast cancer tumor at different stages on the mice: […]
# [5] = system: MDA-MB 231 induced xenograft breast tumor; assay: histopathological (H&E) and TEM examination of treated tumor tissue; type: in vivo, mice; settings: for histopathology of tumor tissue (necrosis): after treatment, H&E
# Protocol: as §2, §3
# The hydrated tissue sections were then stained in hematoxylin solution for 5 mins. This was followed by rinsing with tap water for 3 minutes and differentiation in 1% acid alcohol for 5 minutes. Tap water was then used to rinse (three times) before dipping the sections in ammonia water for 2 minutes. This was followed by staining with eosin for 10 mins. The treated sliced samples were dehydrated in solution with increasing concentrations of alcohols followed by xylene. Finally, a few drops of Permount Mounting Medium were used to mount the resulting samples. […]
# [6] = 21-day (mid stage) group, 10 mg/kg per week IV, two weeks
# [7] = 28-day (late stage) group, 10 mg/kg per week IV, two weeks
# [8] = day 14 (early stage) group, two IV injections (one per week) of 10 mg/kg
# [9] = listed as [D-Lys6]LHRH-conjugated PGS
# Protocol for MDA MB 231 cells: The alamar blue cell viability and cytotoxicity assay was used to study the MDA MB 231 cells lines in the log phase of growth. MDA MB 231 cells were harvested with trypsin-EDTA in the presence of Dulbecco Phosphate Buffer (DPBS). 10^4 cells/well were then seeded in 12-well plates in L15+ medium (L15 medium with cell medium supplement of FBS and penicillin/streptomycin). […] Cell viability was monitored using the alamar blue cell viability and cytotoxicity reagent (Thermo Fisher Scientific, Waltham, Mass., USA) at times of 0 h, 18 h, 24 h, 48 h and 72 h, following drug addition. At each time point, the culture medium was replaced with 1 ml of 10% alamar blue solution (in culture medium). The 12-well plates were then incubated at 37° C. for different durations. After each time point, 100 μl of the solution incubated with alamar blue solution (ABS) was transferred into triplicate wells of a black opaque 96-well plate (Thermo Fisher Scientific, Waltham, Mass., USA).
# The fluorescence intensities of the cell medium supernatant incubated with ABS were measured at 544 nm excitation and 590 nm emission using a 1420 Victor3 multi-label plate reader (Perkin Elmer, Waltham, Mass., USA). The percentage of alamar blue reduction, the percentage difference in cell population between the treated and untreated cells, and the percentage of cell growth inhibition, were determined using a combination of the ABS and cell viability studies. In this way, the cytotoxicity of the respective conjugated drug molecules was obtained from equations 1 and 2 below.
# where, FIsample=fluorescence intensity of the (treated or untreated) cells, FI10% AB=fluorescence intensity of 10% alamar blue reagent (negative control) and FI10% R=fluorescence intensity of 100% reduced alamar blue (positive control).
# FItreated=fluorescence intensity of treated cells and FIcells=fluorescence intensity of untreated cells
compound,measurement,setting,value
"CCCCCC1=C/C(=C/c2[nH]c(-c3ccc[nH]3)cc2OC)N=C1C [PGS, 4-methoxy-5-[(Z)-(5-methyl-4-pentyl-2H-pyrrol-2-ylidene)methyl]-1H,1′H-2,2′-bipyrrole, reference compound]",cell viability (percentage alamar blue reduction) in siRNA-treated cells,[1],no significant differences in cell viability
same,"structural changes of actin filaments, vinculin and nuclei (confocal)",MDA-MB-231 cells,"degradation, disorganization and depolymerization of the actin filaments and vinculin structures"
same,resulting tumor volume,[2]; [6],90.11 mm^3
same,xenograft tumor size,[2]; [7],300.3 mm^3
same,final tumor sizes,[2]; [8],~29.42 mm^3
same,"tumor outcome, early stage",[2]; [8],some tumor shrinkage
same,"histological / pathological changes in liver, lung and kidneys (H&E)",[3],no significant histological or significant pathological changes
LHRH-PGS: [D-Lys6]LHRH analog conjugated to prodigiosin at the epsilon (ε) amino side chain of the D-Lys6 moiety,cell viability (percentage alamar blue reduction) in siRNA-treated cells,[1],no significant differences in cell viability
same,"structural changes of actin filaments, vinculin and nuclei (confocal)",MDA-MB-231 cells,more evident
same,"anti-tumor effect over early, mid and late stages","[2]; listed as LHRH-prodigiosin, 10 mg/kg","decrease, shrink or eliminate tumors"
same,"anti-tumor effect over early, mid and late stages","[2]; listed as [D-Lys6]LHRH-conjugated PGS, 10 mg/kg",significant anti-tumor effects; also recorded: highest therapeutic activity
same,"anti-tumor effect over early, mid and late stages","[2]; listed as [D-Lys6]LHRH-conjugated prodigiosin, 10 mg/kg",shrunk or eliminate the induced tumor
same,decrease in xenograft volume compared to unconjugated PGS,[2]; [6],95.6%
same,resulting tumor volume,[2]; [6],3.93 mm^3
same,"tumor outcome, mid stage",[2]; [6],significant shrinkage
same,percentage reduction in xenograft tumor volume compared to unconjugated PGS,[2]; [7],83.4%
same,xenograft tumor size,[2]; [7],49.9 mm^3
same,"tumor outcome, late stage","[2]; 28-day (late stage) group, 10 mg/kg per week IV, two weeks, 10 mg/kg",significant tumor shrinkage
same,"tumor outcome, late stage","[2]; 28-day (late stage) group, 10 mg/kg per week IV, two weeks, listed as [D-Lys6]LHRH-conjugated prodigiosin, 10 mg/kg",significant shrinkage
same,"tumor outcome, early stage","[2]; day 14 (early stage) group, two IV injections (one per week) of 10 mg/kg, listed as LHRH-conjugated prodigiosin, 10 mg/kg",elimination of early stage breast tumors
same,"tumor outcome, early stage","[2]; day 14 (early stage) group, two IV injections (one per week) of 10 mg/kg, listed as [D-Lys6]LHRH-conjugated PGS, 10 mg/kg",tumor elimination
same,"tumor outcome, early stage","[2]; day 14 (early stage) group, two IV injections (one per week) of 10 mg/kg, listed as [D-Lys6]LHRH-conjugated prodigiosin, 10 mg/kg",eliminated the tumors
same,"adhesion force relative to unconjugated PGS, early stage",[4]; early stage breast tumor,nearly three times
same,"adhesion force relative to unconjugated PGS, late stage",[4]; late stage breast tumor,four times
same,"adhesion force relative to unconjugated PGS, mid stage",[4]; mid stage breast tumor,three times
same,"histological / pathological changes in liver, lung and kidneys (H&E)",[3]; listed as [D-Lys6]LHRH-PGS,did not induce any degeneration in the primary organs
same,"histological / pathological changes in liver, lung and kidneys (H&E)",[3]; [9],no significant histological or significant pathological changes; also recorded: no evidence of liver cell hyaline degeneration and necrosis; also recorded: no pulmonary edema or hyperplasia; also recorded: glomerular volume of the kidneys was normal; also recorded: no chemotherapeutic drug-induced histological changes and tumor metastasis
same,"toxicity / side effects (clinical signs, mortality, body weight)",[3]; listed as LHRH-prodigiosin,"No clinical signs, differences in mortality, or changes in body weight"
same,"toxicity / side effects (clinical signs, mortality, body weight)",[3]; listed as [D-Lys6]LHRH-conjugated prodigiosin,minimal; also recorded: without any evidence of toxicity
same,structural changes of tumor cells/tissue (TEM),[5]; 21-day and 28-day treatment groups,greater structural changes
same,histopathology of tumor tissue (necrosis),[5],exhibited disorder and different sizes
same,histopathology of tumor tissue (necrosis),[5]; [9],higher levels of necrosis in the tumors
same,cytotoxicity on co-incubation of LHRH,MDA MB 231 cells,decreased the cytoxicity
same,percentage alamar blue reduction (cell viability),"MDA MB 231 cells; 15 μM, 25 μM, 30 μM, 18, 24, 48 and 72 h post-treatment",increasing drug concentration had a greater effect on cell growth
same,percentage cell growth inhibition,"MDA MB 231 cells; 15 μM, 25 μM, 30 μM, 72 h",effective at inhibiting the growth

# Reference: patent US20210128674A1, “LHRH-CONJUGATED PRODIGIOSIN AND USES THEREOF” (Worcester Polytechnic Institute, priority 2019, published 2021)
